Results as given in the supplement of paper PMC10307832.

Key:
Assay in all cases: relative viability (nuclei count vs DMSO), 5 days (fraction); higher = more cells survive
Crizotinib + Decitabine = compound: C[C@@H](Oc1cc(-c2cnn(C3CCNCC3)c2)cnc1N)c1c(Cl)ccc(F)c1Cl [Crizotinib] + Nc1ncn([C@H]2C[C@H](O)[C@@H](CO)O2)c(=O)n1 [Decitabine] (partner 2 µM)
In short: (§1)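 The day after seeding in 1536-well plates, lung cancer cell lines were treated by pin tool with a single drug, or with a fixed anchor-drug dose together with five library-drug doses (not always all listed) in √10 steps. After 5 days, a combined fix-and-stain solution (final 0.05% Triton X-100, 1% formaldehyde, 1 ug/ml Hoechst) was added. Nuclei counted on 4× images gave relative viability as treated counts over vehicle counts, reported as the median of duplicate plates.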

Carfilzomib + Linsitinib = compound: CC(C)C[C@H](NC(=O)[C@H](CCc1ccccc1)NC(=O)CN1CCOCC1)C(=O)N[C@@H](Cc1ccccc1)C(=O)N[C@@H](CC(C)C)C(=O)[C@@]1(C)CO1 [Carfilzomib] + C[C@]1(O)C[C@@H](c2nc(-c3ccc4ccc(-c5ccccc5)nc4c3)c3c(N)nccn32)C1 [Linsitinib] (partner 1 µM)
In short: as §1

Crizotinib + Palbociclib = compound: C[C@@H](Oc1cc(-c2cnn(C3CCNCC3)c2)cnc1N)c1c(Cl)ccc(F)c1Cl [Crizotinib] + CC(=O)c1c(C)c2cnc(Nc3ccc(N4CCNCC4)cn3)nc2n(C2CCCC2)c1=O [Palbociclib] (partner 0.5 µM)
In short: as §1

Carfilzomib + Luminespib = compound: CC(C)C[C@H](NC(=O)[C@H](CCc1ccccc1)NC(=O)CN1CCOCC1)C(=O)N[C@@H](Cc1ccccc1)C(=O)N[C@@H](CC(C)C)C(=O)[C@@]1(C)CO1 [Carfilzomib] + CCNC(=O)c1noc(-c2cc(C(C)C)c(O)cc2O)c1-c1ccc(CN2CCOCC2)cc1 [Luminespib] (partner 0.01 µM)
In short: as §1

Cell Line	relative viability (Crizotinib + Decitabine; first compound 0.01 µM)	relative viability (Crizotinib + Decitabine; first compound 0.03162 µM)	relative viability (Crizotinib + Decitabine; first compound 0.1 µM)	relative viability (Crizotinib + Decitabine; first compound 1 µM)	relative viability (Carfilzomib + Linsitinib; first compound 0.001 µM)	relative viability (Carfilzomib + Linsitinib; first compound 0.003162 µM)	relative viability (Carfilzomib + Linsitinib; first compound 0.01 µM)	relative viability (Carfilzomib + Linsitinib; first compound 0.03162 µM)	relative viability (Carfilzomib + Linsitinib; first compound 0.1 µM)	relative viability (Crizotinib + Palbociclib; first compound 0.01 µM)	relative viability (Crizotinib + Palbociclib; first compound 0.03162 µM)	relative viability (Crizotinib + Palbociclib; first compound 0.1 µM)	relative viability (Crizotinib + Palbociclib; first compound 1 µM)	relative viability (Crizotinib + Decitabine; first compound 0.3162 µM)	relative viability (Carfilzomib + Luminespib; first compound 0.001 µM)	relative viability (Carfilzomib + Luminespib; first compound 0.003162 µM)	relative viability (Carfilzomib + Luminespib; first compound 0.01 µM)	relative viability (Carfilzomib + Luminespib; first compound 0.03162 µM)	relative viability (Carfilzomib + Luminespib; first compound 0.1 µM)	relative viability (Crizotinib + Palbociclib; first compound 0.3162 µM)
HCC-366	0.31	0.294	0.406	0.36	0.657	0.666	0.611	0.557	0.0209	0.381	0.429	0.347	0.449							
HCC-827	0.333	0.241	0.328	0.321	0.941	0.979	1.05	0.848	0.406	0.455	0.492	0.498	0.413	0.306	0.344	0.635	0.625	0.721	0.281	0.463
HOP-62	0.174	0.22	0.23	0.202	0.991	0.992	0.924	0.133	0.0627	0.444	0.416	0.412	0.495	0.197	0.986	0.91	0.849	0.784	0.0941	0.396
IA-LM					0.58	0.687	0.836	0.0717	0.0278											
LC-2-ad	0.846	0.896	0.809	0.81	0.879	0.907	0.907	0.462	0.151	0.525	0.504	0.53	0.472		0.974	1.19	1.12	0.593	0.265	
LCLC-97TM1	0.214	0.235	0.212	0.303	0.205	0.178	0.207	0.119	0.127	0.233	0.25	0.197	0.205	0.248	0.743	0.858	0.753	0.27	0.14	0.212
LCLC-103H	0.672	0.759	0.737	0.723	0.951	0.882	1.06	1.11	0.296	0.469	0.435	0.438	0.508	0.754	0.849	0.975	0.943	1.04	0.176	0.471
LK-2	0.293	0.22	0.289	0.284	0.815	0.837	0.497	0.18	0.177	0.65	0.691	0.596	0.534	0.236	0.221	0.203	0.175	0.17	0.168	0.609
LOU-NH91	0.832	0.832	0.846	0.759	1.01	1.14	0.67	0.334	0.298	0.583	0.534	0.516	0.5	0.759	0.344	0.475	0.344	0.287	0.289	0.533
LU99A	0.823	0.803	0.872		0.547	0.514	0.508	0.225	0.159	0.411	0.407	0.384	0.357	0.784	0.252	0.221	0.284	0.218	0.191	0.42
NCI-H522	0.649	0.709	0.762	0.658						0.998	1.18	0.827	1.02	0.657	1.09	1.57	1.16	1.26	0.367	1.04
NCI-H596		0.993	1.01	1.11	1.11	1.03	1.16	0.628	0.449					1.08	1.16	1.05	1.14	0.354	0.195	
NCI-H1299					1.02	1.05	0.971	0.239	0.106											
NCI-H1563					1.19	1.26	1.25	1.2	0.586						0.538	0.455	0.512	0.457	0.466	
NCI-H1623															0.466	0.527	0.563	0.59	0.345	
NCI-H1648		0.498	0.401	0.452							0.262	0.264	0.318	0.488						0.275
NCI-H1650	0.3	0.455	0.466	0.468						0.26	0.359	0.379	0.319	0.396	0.174	0.199	0.213	0.175	0.181	0.391
NCI-H1703					0.91	1.22	0.44	0.132	0.0996											
NCI-H2170	0.407	0.475	0.467	0.471						0.38	0.435	0.362	0.381	0.402	0.635	0.666	0.612	0.579	0.311	0.384
NCI-H2228					0.592	1.04	0.524	0.156	0.103	0.714	0.608	0.691	0.367		0.145	0.152	0.161	0.123	0.144	0.432
NCI-H2342	0.761	0.799	0.781							0.527	0.549	0.531	0.576	0.723	0.69	1.01	0.794	0.798	0.581	0.485
SW 900	0.418	0.436	0.403	0.459						0.544	0.453	0.497	0.514	0.449	0.164	0.196	0.213	0.172	0.149	0.546
